The target of one test is T1, human P2X7 receptor (Homo sapiens, UniProt Q99572).
T1 construct: expressed in transfected cells
T1 sequence (Q99572 1-595): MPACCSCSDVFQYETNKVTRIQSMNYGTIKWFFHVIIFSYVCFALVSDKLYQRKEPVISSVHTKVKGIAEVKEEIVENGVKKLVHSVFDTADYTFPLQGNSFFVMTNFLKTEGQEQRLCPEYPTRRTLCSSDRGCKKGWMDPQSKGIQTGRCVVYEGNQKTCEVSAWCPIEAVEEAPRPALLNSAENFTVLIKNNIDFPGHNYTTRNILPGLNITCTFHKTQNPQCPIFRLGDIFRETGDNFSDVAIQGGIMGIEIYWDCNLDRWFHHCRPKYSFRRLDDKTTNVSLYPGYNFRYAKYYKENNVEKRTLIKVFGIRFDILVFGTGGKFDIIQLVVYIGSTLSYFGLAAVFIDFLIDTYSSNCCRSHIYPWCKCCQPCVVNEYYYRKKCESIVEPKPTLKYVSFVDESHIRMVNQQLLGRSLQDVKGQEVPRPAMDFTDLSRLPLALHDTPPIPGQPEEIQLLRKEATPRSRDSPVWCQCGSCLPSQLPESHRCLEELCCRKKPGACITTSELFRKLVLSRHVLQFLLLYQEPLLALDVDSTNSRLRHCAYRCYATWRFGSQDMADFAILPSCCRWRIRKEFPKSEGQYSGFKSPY
Description: bzATP-induced YO-PRO-1 dye uptake in HEK293 cells stably expressing the human P2X7 receptor. It counts as cell-based. The text has this:
Finally, P2X7 activation is associated with the formation of a large pore that is permeable to molecules of up to ˜1000 Da (Adinolfi et al., 2005; Cheewatrakoolpong et al., 2005; Surprenant et al., 1996).

The next test concerns HeLa cells. Description: MTS proliferation assay of HeLa cells treated with Alu RNA expression plasmid (pAluA). It is filed as cell-based, human. As to conditions: pAluA vs pUC19, d4T co-administration, FIG. 2. Background: Formazan colour is commonly taken as a measure of viable cells.
In another test the test system is RPE degeneration. Put plainly: Alu RNA-induced RPE degeneration in wild type mice, d4T co-delivered to the vitreous humor. As to conditions: sub-retinal Alu RNA, increasing amounts, one week after delivery, FIG. 1. It is filed as in vivo, mouse. The text has this: Arrows denote depigmented regions of RPE cell death, which resolve at highest dose of d4T.
The subject of the next test is Casp-1. Put plainly: LPS/ATP-induced Casp-1 activation in primary human RPE cells. It counts as cell-based. Particulars: d4T 25/100 uM, FIG. 8. The text has this: (§1) Vinculin was used as the loading control in the gel of FIG. 8. Additionally, as shown, LPS and ATP activate the NLRP3 inflammasome only in combination.
(§2) The loading control in FIG. 8 is vinculin. Furthermore, as shown, LPS and ATP activate the NLRP3 inflammasome only in combination, thus treatment with one or the other alone is useful as a control for this experiment.

A further test concerns IL-1 beta. Put plainly: LPS/nigericin-induced IL-1 beta maturation in mouse bone marrow-derived macrophages (Western blot). It is filed as cell-based. As to conditions: d4T 100, 250 uM, FIG. 10. The text has this: To produce FIG. 10, cell culture supernatants were collected after (i) no treatment, (ii) LPS treatment, or (iii) LPS/nigericin treatment of mouse bone marrow-derived macrophages and run on Western blotting probing with antibodies for IL-1 beta and Caspase-1.
Cell culture supernatants were collected after (i) no treatment, (ii) LPS treatment, or (iii) LPS/nigericin treatment of mouse bone marrow-derived macrophages, and run on Western blotting probing with antibodies for IL-1 beta and Caspase-1.
(In general: Immunoblotting shows a protein as a band on a membrane.)

The subject of the next test is neutrophil migration. Put plainly: NLRP3- and P2X7-driven model of sterile inflammation (liver injury). It is filed as in vivo. The text has this:
To explore the potential therapeutic relevance of NRTIs beyond the Alu-induced model of geographic atrophy (GA), it was hypothesized that if NRTIs function as generic inflammasome inhibitors, then they might be broadly useful in other animal models of disease that are also driven by P2X7.

For test [1], the system named is extracellular potassium levels. Description: Extracellular potassium levels after Alu RNA transfection of primary human RPE cells (pyruvate kinase assay). It counts as cell-based. Particulars: primary human RPE cells treated with Alu RNA for 6 hours; FIG. 18. The method, then: Potassium levels were determined in cell culture supernatants spectrophotometrically using a potassium-dependent pyruvate kinase assay.
For FIG. 18, potassium levels were determined in cell culture supernatants spectrophotometrically using a potassium-dependent pyruvate kinase assay.

Test [2] relates to Caspase-1. Put plainly: Western blot of Caspase-1 activation in primary human RPE cells transfected with Alu RNA. It counts as cell-based. The method, then: The bottom row is a vinculin loading control. […]
FIG. 7 is a Western blot showing that Alu RNA causes Caspase-1 maturation in primary human RPE cells at 24 hours after Alu administration (top, middle lane, lower band), which is blocked with co-treatment with azidothymidine (AZT), cordycepin, and abacavir (ABC) (50-100 uM; lanes 3-8 from left). The loading control vinculin is shown on the bottom.
FIG. 21 is a Western blot of Caspase-1 activation (p20 subunit) in primary human RPE cells transfected with Alu RNA±me-d4T.
FIG. 35 is a Western blot of Caspase-1 activation in human RPE cells transfected with Alu RNA±NRTIs (3TC, AZT, ABC).
The bottom row in FIG. 5 is a vinculin loading control. […]
Next, FIG. 7 provides evidence of AZT, cordycepin, and abacavir inhibition of inflammasome activation by Alu RNA. Indeed, Alu RNA causes NLRP3 inflammasome activation, which is marked by processing of the enzyme Caspase 1. FIG. 7 is a Western blot showing that Alu RNA causes Caspase-1 maturation in primary human RPE cells at 24 hours after Alu administration (top, lane 2, lower band), which is blocked with co-treatment with azidothymidine (AZT), cordycepin, and abacavir (ABC) (50-100 uM; Lanes 3-8). Again, the loading control vinculin is shown on the bottom.

The subject of a further test is IRAK4. Put plainly: LPS/ATP-induced IRAK4 phosphorylation in primary human RPE cells. Particulars: d4T 25/100 uM, FIG. 8. It is filed as cell-based.
Text: as §1, §2

The test system of test [3] is Caspase-1. Description: LPS/ATP-induced Caspase-1 activation in mouse bone marrow-derived macrophages (Western blot). It counts as cell-based. The text has this: To produce FIG. 9, cell culture supernatants were collected after (i) no treatment, (ii) LPS treatment, or (iii) LPS/ATP treatment of mouse bone marrow-derived macrophages and run on Western blotting probing with antibodies for Caspase-1 and IL-18.
Further, the present inventors also tested whether NRTIs blocked inflammasome activation by LPS/ATP, which is not known to signal via reverse transcriptase (Mariathasan et al., 2004; Mariathasan et al., 2006; Martinon et al., 2002).
FIGS. 38-41 illustrate that NRTIs block LPS/ATP-induced inflammasome activation. […] Representative images of n=3-4 experiments are provided in each of FIGS. 38-41.

Entries after “also recorded” stand apart in the source; their conditions may differ.

For `Cc1cn([C@H]2C=C[C@@H](CO)O2)c(=O)[nH]c1=O` [d4T, 2′3′ dideoxythymidine], at human P2X7 receptor (HEK293 human P2X7, pre-incubated 30 minutes, fluorescence 485/515 nm at t=30 minutes, FIG. 19), the “YO-PRO-1 iodide entry stimulated with bzATP” value is “blocked YO-PRO-1 iodide entry”. For the same molecule, the “P2X7-mediated YO-PRO-1 dye uptake (fluorescence) induced by bzATP” value at human P2X7 receptor (bzATP 100 μM, 64 μM for both drugs, p<0.05, n=12, FIG. 43) is “inhibited”. Also, the “P2X7-dependent uptake of YO-PRO1 after addition of bzATP” value on human P2X7 receptor (human P2X7-overexpressing HEK293 stable cell line, concentration not given) is on record as “inhibited P2X7-dependent uptake of the fluorescent dye YO-PRO1”. Also, the “Cell viability / cell death induced by Alu overexpression (MTS)” value in the test with HeLa cells is recorded as “prevented cell death induced by Alu overexpression”. Also, the “Alu RNA-induced RPE degeneration / RPE cell death (fundus photographs, ZO-1 flat mounts)” value in the test with RPE degeneration is listed as “prevents Alu RNA-induced RPE cell death in a dose-dependent manner; also recorded: restored to healthy RPE morphology/intercellular junctions at highest dose of d4T”. For the same molecule, the “Casp-1 activation induced by LPS/ATP” value with Casp-1 is reported as “blocks”. Moreover, the “IL-1 beta maturation (18 and 22 kDa forms) induced by nigericin” value in the test with IL-1 beta is given as “inhibits”. Besides, the “Neutrophil migration to the focus of liver injury” value with neutrophil migration is reported as “reduced neutrophil migration to the focus of liver injury”. Besides, the “Extracellular potassium levels after Alu RNA transfection” value in test [1] is on record as “reduces extracellular potassium levels”. For the same molecule, the “Caspase-1 maturation caused by Alu RNA” value in the test with Caspase-1 [2] (24 hours after Alu administration, d4T 100 uM, FIG. 5) was “blocked”. Moreover, the “Caspase-1 activation / cleavage (p20) induced by Alu RNA” value with Caspase-1 [2] (concentration not given, FIG. 21, 34, 35, 51-53) is reported as “block Caspase 1 activation by Alu RNA; also recorded: prevents Caspase 1 cleavage to its active 20 kDa form”. In the test with IRAK4, the “IRAK4 phosphorylation induced by LPS/ATP” value is recorded as “blocks”. Besides, in the test on Caspase-1 [3] (mouse bone marrow-derived macrophages, supernatants, 100 uM, FIG. 9), the “Caspase-1 activation (active p20 band) induced by LPS/ATP” value is “inhibit”. Further, in the test on Caspase-1 [3] (primary mouse bone marrow-derived macrophages, FIG. 38), the “LPS/ATP-induced Caspase-1 maturation” value is on record as “inhibited; also recorded: blocked Caspase-1”.
